{"source": "patent US10273240B2", "about": "“Cortistatin analogues, syntheses, and uses thereof” (President and Fellows of Harvard College, priority 2015, dated 2019)", "key": {"[1]": {"molecular_target": "T1, CDK13 in MOLM-14 cell lysate (Homo sapiens, UniProt Q14004)", "T1 construct": "endogenous in cells; host or cells: MOLM-14 cell lysate", "T1 sequence (Q14004 whole entry)": "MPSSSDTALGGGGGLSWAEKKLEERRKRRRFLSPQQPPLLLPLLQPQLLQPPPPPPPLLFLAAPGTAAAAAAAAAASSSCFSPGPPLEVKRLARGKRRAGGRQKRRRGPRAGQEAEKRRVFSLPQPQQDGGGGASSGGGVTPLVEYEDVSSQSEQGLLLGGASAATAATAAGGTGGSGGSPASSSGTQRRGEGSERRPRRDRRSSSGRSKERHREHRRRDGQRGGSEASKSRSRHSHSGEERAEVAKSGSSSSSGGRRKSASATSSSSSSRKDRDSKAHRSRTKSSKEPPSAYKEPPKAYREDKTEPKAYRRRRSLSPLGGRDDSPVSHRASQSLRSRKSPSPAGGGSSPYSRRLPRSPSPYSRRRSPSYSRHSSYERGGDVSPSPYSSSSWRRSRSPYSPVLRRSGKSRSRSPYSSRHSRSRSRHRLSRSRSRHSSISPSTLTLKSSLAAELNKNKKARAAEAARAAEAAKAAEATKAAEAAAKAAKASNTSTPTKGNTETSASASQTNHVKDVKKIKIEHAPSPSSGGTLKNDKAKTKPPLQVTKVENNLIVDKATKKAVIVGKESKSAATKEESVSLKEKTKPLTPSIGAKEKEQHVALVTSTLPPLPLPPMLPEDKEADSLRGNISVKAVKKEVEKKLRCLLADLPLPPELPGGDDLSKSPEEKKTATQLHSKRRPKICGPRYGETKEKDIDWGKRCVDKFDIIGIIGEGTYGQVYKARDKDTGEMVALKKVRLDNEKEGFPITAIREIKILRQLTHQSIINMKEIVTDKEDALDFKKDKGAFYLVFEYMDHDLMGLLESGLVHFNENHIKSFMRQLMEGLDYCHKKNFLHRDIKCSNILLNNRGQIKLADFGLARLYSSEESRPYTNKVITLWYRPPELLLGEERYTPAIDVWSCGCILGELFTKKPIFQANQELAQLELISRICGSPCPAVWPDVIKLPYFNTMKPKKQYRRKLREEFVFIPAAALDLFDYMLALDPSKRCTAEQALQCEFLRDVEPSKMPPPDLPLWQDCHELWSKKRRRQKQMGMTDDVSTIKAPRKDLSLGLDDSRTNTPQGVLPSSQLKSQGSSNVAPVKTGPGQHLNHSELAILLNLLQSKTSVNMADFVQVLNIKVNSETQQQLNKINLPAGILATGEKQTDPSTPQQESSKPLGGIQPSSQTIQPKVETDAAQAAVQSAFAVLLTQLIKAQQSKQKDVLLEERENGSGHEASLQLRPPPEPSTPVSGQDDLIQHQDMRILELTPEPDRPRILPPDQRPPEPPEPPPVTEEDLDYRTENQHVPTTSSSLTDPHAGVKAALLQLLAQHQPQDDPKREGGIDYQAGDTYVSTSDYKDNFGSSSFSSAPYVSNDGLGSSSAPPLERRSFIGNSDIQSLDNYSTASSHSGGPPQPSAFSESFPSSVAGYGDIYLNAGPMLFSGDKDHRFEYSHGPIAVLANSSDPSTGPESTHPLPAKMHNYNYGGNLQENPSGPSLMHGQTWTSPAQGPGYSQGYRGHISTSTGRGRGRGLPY", "T1 sequence (O75909 whole entry partner)": "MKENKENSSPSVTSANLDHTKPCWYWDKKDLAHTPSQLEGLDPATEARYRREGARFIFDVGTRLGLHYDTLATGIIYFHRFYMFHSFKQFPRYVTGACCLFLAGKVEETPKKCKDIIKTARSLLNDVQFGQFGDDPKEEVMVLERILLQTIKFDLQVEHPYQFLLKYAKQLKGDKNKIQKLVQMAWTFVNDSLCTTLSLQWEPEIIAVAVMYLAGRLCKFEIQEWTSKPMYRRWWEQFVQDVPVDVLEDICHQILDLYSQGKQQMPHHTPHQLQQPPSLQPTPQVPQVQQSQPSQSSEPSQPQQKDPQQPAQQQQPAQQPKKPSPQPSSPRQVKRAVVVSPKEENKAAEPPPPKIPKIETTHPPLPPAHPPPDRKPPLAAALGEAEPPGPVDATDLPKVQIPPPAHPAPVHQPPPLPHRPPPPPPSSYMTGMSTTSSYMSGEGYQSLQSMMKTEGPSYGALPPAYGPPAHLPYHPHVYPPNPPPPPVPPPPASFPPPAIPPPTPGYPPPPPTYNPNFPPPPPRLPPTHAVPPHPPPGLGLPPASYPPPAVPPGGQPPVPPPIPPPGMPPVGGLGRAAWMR", "assay": "Native kinase capture immunoblot, CDK13", "format": "binding", "description": "(§1) Native Kinase Capture Immunoblot and Native Kinome-Wide Profiling. […] Experiment was performed twice with one immunoblot shown."}, "[2]": {"tested_on": "Smad2 T220 and Smad3 T179 phosphorylation", "assay": "TGF-β-stimulated Smad2 T220 and Smad3 T179 phosphorylation immunoblot", "format": "cell-based, human", "settings": "HaCaT cells", "description": "Kinase Assays. Data was quantified with ImageJ and plotted and fitted with GraphPad Prism 6.0. For STAT1 transactivation domain (TAD), 750 ng of GST-STAT1 TAD (residues 639-750) was incubated with ˜50 ng recombinant CDK8 module at 30° C. for 8 min in kinase buffer (25 mM Tris pH 8, 2 mM DTT, 100 μM cold ATP, 100 mM KCl, 10 mM MgCl2 and 2.5 μCi [γ-^32P] ATP (Perkin Elmer) per reaction). […] 12% SDS-PAGE gels were subsequently silver stained, exposed for 18 h on a Phosphor Screen and imaged (Typhoon 9400, GE Life Sciences). For pol II CTD, 400 ng of GST-CTD (murine sequence) was incubated with ˜40 ng recombinant CDK8 module, 25 ng TFIIH, or 40 ng P-TEFb at 30° C. for 60 min in kinase buffer. Kinase amounts were chosen to give similar total pol II CTD signal. 9% SDS-PAGE gels were silver stained and exposed as above. In vitro FLAG-CDK8 kinase assays used ˜40 ng kinase and 500 ng GST-CTD. For STAT1 or Smad2/3, cells were treated with compound for 1 h followed by IFN-γ or TGF-β1 for 1 h, then washed twice with cold PBS, and lysed (RIPA buffer with inhibitors R0278, P8340, P0044, P5762 Sigma-Aldrich). Standard immunoblotting was then performed with one immunoblot shown. All experiments were performed twice."}, "[3]": {"molecular_target": "T2, CDK12 in MOLM-14 cell lysate (Homo sapiens, UniProt Q9NYV4)", "T2 construct": "endogenous in cells; host or cells: MOLM-14 cell lysate", "T2 sequence (Q9NYV4 whole entry)": "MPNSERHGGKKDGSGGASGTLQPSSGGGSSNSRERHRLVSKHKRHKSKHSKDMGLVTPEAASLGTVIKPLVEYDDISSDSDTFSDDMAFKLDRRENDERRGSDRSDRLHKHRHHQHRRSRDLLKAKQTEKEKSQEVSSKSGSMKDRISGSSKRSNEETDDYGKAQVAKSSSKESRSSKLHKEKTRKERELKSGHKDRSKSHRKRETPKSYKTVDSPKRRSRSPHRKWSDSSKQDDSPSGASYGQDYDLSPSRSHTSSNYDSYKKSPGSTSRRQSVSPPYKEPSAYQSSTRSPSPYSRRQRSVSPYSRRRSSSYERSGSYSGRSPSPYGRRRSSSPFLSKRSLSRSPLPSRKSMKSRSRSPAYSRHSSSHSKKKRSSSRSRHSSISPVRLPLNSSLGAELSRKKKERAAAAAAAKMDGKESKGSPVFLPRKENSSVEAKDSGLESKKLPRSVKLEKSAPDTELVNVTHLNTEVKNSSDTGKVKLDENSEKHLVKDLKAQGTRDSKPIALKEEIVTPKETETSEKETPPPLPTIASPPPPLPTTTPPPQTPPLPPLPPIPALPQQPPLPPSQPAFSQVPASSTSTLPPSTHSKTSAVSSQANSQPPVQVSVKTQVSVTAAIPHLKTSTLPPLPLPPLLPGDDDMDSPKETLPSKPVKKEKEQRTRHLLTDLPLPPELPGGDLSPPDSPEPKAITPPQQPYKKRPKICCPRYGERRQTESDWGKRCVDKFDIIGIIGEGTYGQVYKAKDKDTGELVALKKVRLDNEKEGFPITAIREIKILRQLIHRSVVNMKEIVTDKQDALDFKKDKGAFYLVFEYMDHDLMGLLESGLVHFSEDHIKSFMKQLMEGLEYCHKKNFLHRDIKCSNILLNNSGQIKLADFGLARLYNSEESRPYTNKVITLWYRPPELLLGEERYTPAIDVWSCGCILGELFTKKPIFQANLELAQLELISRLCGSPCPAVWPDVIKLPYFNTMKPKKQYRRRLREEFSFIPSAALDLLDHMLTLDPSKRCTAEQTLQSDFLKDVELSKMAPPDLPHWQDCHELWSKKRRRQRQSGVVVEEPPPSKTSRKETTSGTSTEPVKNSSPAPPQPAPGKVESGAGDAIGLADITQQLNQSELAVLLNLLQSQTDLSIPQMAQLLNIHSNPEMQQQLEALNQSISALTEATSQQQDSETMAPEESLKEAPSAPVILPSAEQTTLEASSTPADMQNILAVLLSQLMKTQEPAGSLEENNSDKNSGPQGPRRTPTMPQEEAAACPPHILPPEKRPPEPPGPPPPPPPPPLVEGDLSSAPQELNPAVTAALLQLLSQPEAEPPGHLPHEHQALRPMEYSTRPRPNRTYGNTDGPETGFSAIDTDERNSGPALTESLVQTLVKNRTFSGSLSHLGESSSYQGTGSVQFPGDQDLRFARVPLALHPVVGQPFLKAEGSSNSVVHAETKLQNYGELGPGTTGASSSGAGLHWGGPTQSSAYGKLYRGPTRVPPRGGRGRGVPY", "T2 sequence (O75909 whole entry partner)": "as the sequence (O75909 whole entry partner) above", "assay": "Native kinase capture immunoblot, CDK12", "format": "binding", "description": "as §1"}, "MEG-01": {"tested_on": "MEG-01", "assay": "Cell growth assay, MEG-01", "format": "cell-based", "settings": "Homo sapiens, MEG-01, 240 h; CA, after 10 days; read-out: Mean GI50 (nM), MEG-01", "description": "(§2) Cell Culture. All media was supplemented with 100 U/mL penicillin and 100 μg/mL streptomycin. Human cancer cell lines were grown in the following media: MV4; 11, RS4; 11, K562, HEL, MOLM-14, MEG-01 in RPMI-1640, 10% FBS; SET-2 in RPMI-1640, 20% FBS; UKE-1 in RPMI-1640, 10% FBS, 10% horse serum and 1 μM hydrocortisone; SKNO-1 and TF-1 in RPMI-1640, 10% FBS, and 10 or 2 ng/mL GM-CSF, respectively; HaCaT in DMEM, 10% FBS; and HCT116 in McCoy's 5 A, 10% FBS (proliferation assay) or DMEM, 10% FBS (gene expression study). HepG2, MV4;11, RS4;11, MEG-01, TF-1, HCT116 and K562 were from ATCC. SKNO-1 was from DSMZ. HEL, UKE-1, and SET-2 were provided by Ross L. Levine and HaCaT, MV4;11-mCLP, and MOLM-14 by Van Wilson, Andrew L. Kung, and Scott A. Armstrong, respectively. MOLM-14 cells were authenticated by STR profiling and flow cytometry and all cell lines were routinely tested and found to be negative for mycoplasma."}, "RS4;11": {"tested_on": "RS4;11", "assay": "Cell growth assay, RS4;11", "format": "cell-based", "settings": "Homo sapiens, RS4-11, 240 h; CA, after 10 days; read-out: Mean GI50 (nM), RS4;11", "description": "as §2"}, "[4]": {"tested_on": "myeloid, mixed-lineage, and megakaryoblastic leukemia cell lines", "assay": "Cell growth assay, leukemia cell lines in general", "format": "cell-based", "settings": "Homo sapiens, 240 h; 10-day treatment"}, "MV4;11": {"tested_on": "MV4;11", "assay": "Cell growth assay, MV4;11", "format": "cell-based", "settings": "Homo sapiens", "description": "All media was supplemented with 100 U/mL penicillin and 100 μg/mL streptomycin. Human cancer cell lines were grown in the following media: MV4; 11, K562, MOLM-14 in RPMI-1640, 10% FBS; SKNO-1 in RPMI-1640, 10% FBS, and 10 ng/mL GM-CSF; MV4;11 and K562 were from ATCC. SKNO-1 was from DSMZ.\nas §2"}}, "note": "Like-named read-outs stand apart in the source and are kept apart here."}
{"molecule": "CN(C)[C@H]1C[C@@]23CC[C@@]4(O2)C(=CC[C@@]2(C)[C@@H](c5ccc6ccncc6c5)CC[C@H]24)C=C3[C@@H](O)[C@@H]1O", "note": "[CA, cortistatin A]", "values": [{"measurement": "binding of CDK13 (no binding at up to)", "setting": "[1]", "result": "> 2500", "unit": "nM"}, {"measurement": "inhibition of Smad2 T220 and Smad3 T179 phosphorylation", "setting": "[2]", "result": "dose-dependently inhibited"}, {"measurement": "binding of CDK12 (no binding at up to)", "setting": "[3]", "result": "> 2500", "unit": "nM"}, {"measurement": "GI50", "setting": "MEG-01", "result": 9, "unit": "nM"}, {"measurement": "GI50", "setting": "RS4;11", "result": 3, "unit": "nM"}, {"measurement": "GI50", "setting": "[4]", "result": "< 10", "unit": "nM"}, {"measurement": "GI50", "setting": "MV4;11; MV4-11, 240 h, CA, after 10 days, read-out: Mean GI50 (nM), MV4;11", "result": 6, "unit": "nM"}, {"measurement": "GI50", "setting": "MV4;11; MV4-11, 240 h, read-out: MV4;11 GI50 day 10", "result": 3.5, "unit": "nM"}, {"measurement": "GI50", "setting": "MV4;11; MV4-11, Table 5, read-out: GI50 (nM), MV4;11", "result": 6, "unit": "nM"}]}
